Data set [1] has as its system BTECs. Briefly: Activity of mitochondrial ETC complexes I-IV in BTECs. In kind it is cell-based, human. The note with it: FLVCR1a-silenced vs scramble shRNA BTECs. From the text:
Results were expressed as nmol NAD*/min/mg mitochondrial protein for complex I, nmol reduced cytochrome c/min/mg mitochondrial protein for complexes II-III, nmol oxidized cytochrome c/min/mg mitochondrial protein for complex IV. Data represent mean±SEM, n=3. For statistical analyses, an unpaired Student's t-test was used; *=p<0.05, **=p<0.01, *=p<0.001. […] Results are expressed as nmol/mg mitochondrial proteins. Data represent mean±SEM, n=3. For statistical analyses, an unpaired Student's t-test was used; *=p<0.05. […] Results are expressed as pmol CO2/h/mg protein. Data represent mean±SEM, n=3. For statistical analyses, an unpaired Student's t-test was used; **=p<0.01. […] Results were expressed as nmol NAD*/min/mg mitochondrial protein for complex I, nmol reduced cytochrome c/min/mg mitochondrial protein for complexes II-III, nmol oxidized cytochrome c/min/mg mitochondrial protein for complex IV. […] Results are expressed as nmol/mg mitochondrial proteins. […] Results are expressed as pmol CO2/h/mg protein. […] (H) TCA cycle enzymes activities are reported in boxes and expressed as mU/mg mitochondrial proteins. […] Results were expressed as nmol NAD^+/min/mg mitochondrial protein for complex I, nmol reduced cytochrome c/min/mg mitochondrial protein for complexes II-III, nmol oxidized cytochrome c/min/mg mitochondrial protein for complex IV. […] Results are expressed as nmol/mg mitochondrial proteins. […]

Data set [2] deals with SKCO1 cells. The data set is described as follows: SKCO1 xenograft tumor model in NSG mice. In kind it is in vivo. From the text: (A) Proliferation of Caco2 cells assessed by crystal violet staining at the indicated days; bar=1000 μm. […] Staining quantification is reported in the bar graph as percentage of crystal violet stained area. Data represent mean±SEM, n=4. For statistical analyses, a two-way analysis of variance was used, followed by the Bonferroni correction for multiple group comparisons; *=p<0.05, ***=p<0.001. (B) Caco2 cells viability the day of plating (day 0) and three days after plaiting (day 3). The measure is considered a readout of cell proliferation. […] Data represent mean±SEM, n=3 wells. For statistical analyses, a two-way analysis of variance was used, followed by the Bonferroni correction for multiple group comparisons; *=p<0.05, **=p<0.01. (C, D, E) Representative flow cytometric analyses of apoptosis in synchronized Caco2 (C), SKCO1 (D) and C80 (E) cells. […] Data represent mean±SEM, n=4 wells pooled from two independent experiments. […]
For the SKCO1 xenograft model, 8-week-old NOD SCID gamma (NSG) male mice (The Jackson Laboratory, Bar Harbor, ME USA; NOD.Cg-Prkdc^scid Il2rg^tm1Wjl/SzJ, catalog n° 005557, RRID: IMSR_JAX:005557) were housed in a temperature-controlled, pathogen-free environment and used for experimentation. […] Tumor length (L) and width (W) were measured and tumor volume (mm^3) was calculated using the following formula: (L×W^2)/2. […]

The text below walks through data of patent US20240285670A1, “THERAPEUTIC TREATMENT OF TUMORS BY BLOCKING THE HEME SYNTHESIS-EXPORT AXIS” (Università degli Studi di Torino, priority 2021, published 2024).

Regarding “FLVCR1a shRNA: shRNA specifically down-regulating FLVCR1a without targeting FLVCR1b; pLKO.1 lentiviral clone TRCN0000059599, antisense SEQ ID No.: 2 (antisense TTGCTAATGATGCTGTACTGG; sense CCAGTACAGCATCATTAGCAA)”, the “activity of ETC complexes” value in data set [1] is recorded as “enhanced activity of ETC complexes”. Further, the “tumor size (tumor volume)” value in data set [2] (subcutaneous injection of FLVCR1a-silenced vs scramble SKCO1 cells in NSG mice, 11 weeks) is reported as “smaller tumors”. Besides, the “tumor histology (hematoxylin and eosin)” value in data set [2] (tumors from FLVCR1a-silenced vs control SKCO1 cells in NSG mice) is “higher amount of stroma (mostly fibrous tissue) and, in general, lower cellularity”.
